# Laboratory results: patent US20260345598A1 (INTRA-CELLULAR THERAPIES, INC., priority 2023, published 2026)
# Tests used:
# [1] = system: glutamatergic NMDA NR2B (GluN2B) receptors; conditions: mesolimbic; cited from earlier work
# 5-HT2A receptor [2] = conditions: read-out: 5-HT2A receptor antagonism Ki; cited from earlier work
# 5-HT2A receptor [3] = conditions: cited from earlier work
# NMDA and AMPA receptor = conditions: rat mPFC slices; cited from earlier work
# D2 receptor = conditions: presynaptic D2 receptor partial agonism and postsynaptic D2 receptor antagonism; cited from earlier work
# [4] = system: patients with acute exacerbated schizophrenia; assay: Clinical studies in patients with acute exacerbated schizophrenia, emotional experience symptoms; format: in vivo, human; conditions: 60 mg P.O. once daily, up to 28 days, two clinical studies, vs placebo
# Description: Social avoidance can be a critical and debilitating symptom in patients suffering from anxiety disorders, especially social anxiety disorder, as well as in patients suffering from traumatic anxiety disorders. Social avoidance is often one of the key determinants of whether a person with a severe anxiety disorder is capable of maintaining familial relationships or employment relationships. […] Negative symptoms of schizophrenia can be divided into two categories: emotional experience (e.g., emotional withdrawal, passive social withdrawal, active social avoidance) and emotional expression (e.g., blunted effect, poor rapport, lack of spontaneity, and motor retardation). […] These are the symptoms that are most highly correlated with interpersonal functioning.
# [5] = system: NMDA/AMPA receptors and downstream BDNF and mTOR signaling; conditions: compared with ketamine; cited from earlier work
# [6] = system: PFC mTORC1-related signaling pathways; assay: PFC mTORC1-related signaling and neurotrophic factor genes after acute administration; format: in vivo
# Description: As a result, glutamate release is increased which enhances AMPA mediated currents, BDNF release, and mTORC1 activation. Increased synaptogenesis has been associated with enhanced mTORC1 signaling in the PFC.
# [7] = in vivo; cited from earlier work
# right lateral PFC = conditions: patients with MDD, after ketamine treatment; cited from earlier work
# [8] = system: dendritic spines in cells of the frontal cortex; conditions: cited from earlier work
# 5-HT2A receptor [9] = conditions: pre-treatment; cited from earlier work
# serotonin receptor = conditions: pre-treatment, dose blocking about 30% of 5-HT2A receptors; cited from earlier work
# [10] = system: medial prefrontal cortex neurons; conditions: mouse, in vivo; cited from earlier work
structure (smiles),measurement,setting,value
"CN1CCN2c3c(cccc31)[C@@H]1CN(CCCC(=O)c3ccc(F)cc3)CC[C@@H]12 [Lumateperone, 4-((6bR,10aS)-3-methyl-2,3,6b,9,10,10a-hexahydro-1H-pyrido[3′,4′: 4,5]pyrrolo[1,2,3-de]quinoxalin-8 (7H)-yl)-1-(4-fluorophenyl)-1-butanone]",phosphorylation of NMDA NR2B (GluN2B) receptors,[1],stimulates phosphorylation of glutamatergic NMDA NR2B (GluN2B) receptors in a mesolimbic specific manner
same,Ki,5-HT2A receptor [2],0.5 nM
same,5-HT2A receptor functional activity,5-HT2A receptor [3],strong antagonist of the 5-HT2A receptor
same,serotonin receptor agonist activity,5-HT2A receptor [3],does not have serotonin receptor agonist activity
same,"glutamatergic neurotransmission, NMDA and AMPA receptor conductance",NMDA and AMPA receptor,enhance glutamatergic neurotransmission by effects on both NMDA and AMPA receptor conductance
same,Ki,D2 receptor,32 nM
same,symptoms of emotional experience,[4],significant and unexpected improvement in symptoms of emotional experience compared to placebo
same,activity on NMDA/AMPA receptors and downstream BDNF and mTOR signaling,[5],very similar activity on NMDA/AMPA receptors and downstream BDNF and mTOR signaling as ketamine
same,PFC mTORC1-related signaling and neurotrophic factor genes,[6],"stimulates PFC mTORC1-related signaling pathways, as well as some important genes coding for neurotrophic factors, such as BDNF and VEGF"
CN(C)CCc1c[nH]c2cccc(O)c12 [Psilocin],5-HT2A receptor functional activity,5-HT2A receptor [3],strong agonist of the 5-HT2A receptor
same,side effects,[7],can cause nausea and panic attacks
CNC1(c2ccccc2Cl)CCCCC1=O (centres unmarked) [ketamine],functional connectivity in the right lateral PFC,right lateral PFC,improved functional connectivity in the right lateral PFC
O=C(c1ccc(F)cc1)C1CCN(CCn2c(=O)[nH]c3ccccc3c2=O)CC1 [ketanserin],effect on psilocybin-induced growth of dendritic spines,[8]; pre-treatment with 5-HT2A receptor antagonist,did not eliminate the psilocybin-induced growth of dendritic spines
same,5-HT2A receptors blocked,5-HT2A receptor [9],about 30%
same,psilocybin-induced head twitch response,serotonin receptor,sufficient to block the psilocybin-induced head twitch response
CN(C)CCc1c[nH]c2cccc(OP(=O)(O)O)c12 [psilocybin],persistence of changes in dendritic spine density,[8]; following the single dose,at least a month
same,dendritic spine formation/elimination rate,[8]; male and female mice,"increased formation rate, rather than reduced elimination rate"
same,dendritic spine density and spine head width,"[8]; single dose, within one day","measurable increase in dendritic spine density, as well as increased spine head width, within one day"
same,5-HT2A receptor functional activity,5-HT2A receptor [3],strong agonist of the 5-HT2A receptor
same,excitatory neurotransmission in medial prefrontal cortex (mEPSCs),[10],increased excitatory neurotransmission in the medial prefrontal cortex
